{"source": "ChEMBL document CHEMBL4393702", "about": "“Structure-activity relationship and synthetic methodologies of α-santonin derivatives with diverse bioactivities: A mini-review” (Eur J Med Chem, 2019)", "key": {"[1]": {"target": "T1, Peroxisome proliferator-activated receptor gamma (Homo sapiens, UniProt P37231)", "T1 sequence (P37231 whole entry)": "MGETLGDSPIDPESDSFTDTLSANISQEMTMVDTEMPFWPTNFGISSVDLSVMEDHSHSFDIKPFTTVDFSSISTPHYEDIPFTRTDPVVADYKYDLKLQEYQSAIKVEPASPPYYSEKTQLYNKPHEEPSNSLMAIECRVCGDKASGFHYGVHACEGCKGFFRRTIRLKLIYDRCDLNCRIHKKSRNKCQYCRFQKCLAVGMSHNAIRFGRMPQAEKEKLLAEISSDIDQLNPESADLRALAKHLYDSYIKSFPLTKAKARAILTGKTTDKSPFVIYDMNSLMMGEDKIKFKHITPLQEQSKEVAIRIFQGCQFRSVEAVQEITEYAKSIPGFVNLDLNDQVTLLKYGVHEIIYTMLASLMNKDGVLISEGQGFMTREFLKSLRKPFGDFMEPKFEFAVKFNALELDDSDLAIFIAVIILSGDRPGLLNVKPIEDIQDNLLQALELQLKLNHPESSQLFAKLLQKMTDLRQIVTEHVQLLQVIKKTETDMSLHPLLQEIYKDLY", "assay": "Agonist activity at GAL4- fused PPARgamma LBD (unknown origin) expressed in African green monkey COS7 cells by luciferase reporter gene assay", "type": "cell-based"}, "Melanoma cell line": {"test_system": "Melanoma cell line", "assay": "Growth inhibition of human Melanoma cells after 48 hrs by MTT assay", "type": "functional"}, "[2]": {"assay": "Growth inhibition of human Caov cells after 48 hrs by MTT assay", "type": "functional"}, "P388": {"test_system": "P388", "assay": "Cytotoxicity against mouse P388 cells assessed as reduction in cell viability incubated for 72 hrs by MTT assay", "type": "functional, cell-based", "conditions": "P388, 72 h"}, "HONE1 cell line": {"test_system": "HONE1 cell line", "assay": "Cytotoxicity against human HONE1 cells assessed as reduction in cell viability incubated for 72 hrs by MTT assay", "type": "functional, cell-based", "conditions": "HONE1, 72 h"}, "HT-29": {"test_system": "HT-29", "assay": "Cytotoxicity against human HT-29 cells assessed as reduction in cell viability incubated for 72 hrs by MTT assay", "type": "functional, cell-based", "conditions": "HT-29, 72 h"}, "[3]": {"target": "T2, Polyunsaturated fatty acid 5-lipoxygenase (Homo sapiens, UniProt P09917)", "T2 sequence (P09917 whole entry)": "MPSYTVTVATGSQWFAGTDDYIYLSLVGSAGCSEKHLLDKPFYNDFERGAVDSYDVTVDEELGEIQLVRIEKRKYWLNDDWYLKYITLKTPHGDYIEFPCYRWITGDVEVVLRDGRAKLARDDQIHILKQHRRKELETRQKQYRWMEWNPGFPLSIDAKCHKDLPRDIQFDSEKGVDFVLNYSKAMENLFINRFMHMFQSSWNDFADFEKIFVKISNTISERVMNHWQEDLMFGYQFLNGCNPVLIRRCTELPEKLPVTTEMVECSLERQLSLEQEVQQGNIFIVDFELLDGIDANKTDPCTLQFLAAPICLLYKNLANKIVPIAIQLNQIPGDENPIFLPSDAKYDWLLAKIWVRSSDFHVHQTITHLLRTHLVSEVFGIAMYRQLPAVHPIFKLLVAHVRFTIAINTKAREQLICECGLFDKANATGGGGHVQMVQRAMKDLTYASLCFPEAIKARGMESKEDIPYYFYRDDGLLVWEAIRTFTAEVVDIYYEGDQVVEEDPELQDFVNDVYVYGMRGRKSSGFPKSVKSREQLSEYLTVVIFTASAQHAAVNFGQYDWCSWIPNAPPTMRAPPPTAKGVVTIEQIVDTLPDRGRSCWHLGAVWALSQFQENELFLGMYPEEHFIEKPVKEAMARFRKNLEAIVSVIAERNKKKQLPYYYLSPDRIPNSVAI", "assay": "Inhibition of 5-LOX in polymorphonuclear leucocytes (unknown origin)", "type": "cell-based"}, "[4]": {"target": "T2, Polyunsaturated fatty acid 5-lipoxygenase", "assay": "Inhibition of 5-LOX (unknown origin)"}, "[5]": {"test_system": "Trypanosoma brucei brucei", "assay": "Antitrypanosomal activity against Trypanosoma brucei brucei GUTat 3.1 after 72 hrs by Alamar Blue assay", "type": "functional, organism-based", "conditions": "GUTat 3.1, 72 h"}, "[6]": {"assay": "Cytotoxicity against human […] cells assessed as reduction in cell viability after 72 hrs by Alamar Blue assay", "type": "functional, cell-based"}, "A549": {"test_system": "A549", "assay": "Anticancer activity against human A549 cells assessed as reduction in cell viability incubated for 1 hr by SRB assay", "type": "functional, cell-based", "conditions": "A549, 1 h"}, "THP-1": {"test_system": "THP-1", "assay": "Anticancer activity against human THP1 cells assessed as reduction in cell viability incubated for 1 hr by SRB assay", "type": "functional, cell-based", "conditions": "THP-1, 1 h"}, "[7]": {"assay": "Anticancer activity against human IMR13 cells assessed as reduction in cell viability incubated for 1 hr by SRB assay", "type": "functional, cell-based"}, "HCT-116": {"test_system": "HCT-116", "assay": "Anticancer activity against human HCT116 cells assessed as reduction in cell viability incubated for 1 hr by SRB assay", "type": "functional, cell-based", "conditions": "HCT-116, 1 h"}}, "note": "pEC50, pIC50: −log10 of the molar value.", "data": [{"smiles": "CCCOc1cc(C)c2c(c1C)C[C@H]([C@H](C)C(=O)O)CC2", "values": [{"measurement": "pEC50", "setting": "[1]", "result": 4.82}]}, {"smiles": "CC1=C2[C@H]3OC(=O)[C@@H](CN4CCCC(C)(C)C4)[C@@H]3CC[C@@]2(C)C=CC1=O", "values": [{"measurement": "GI50", "setting": "Melanoma cell line", "result": 3000, "unit": "nM"}, {"measurement": "GI50", "setting": "[2]", "result": 2000, "unit": "nM"}]}, {"smiles": "COc1ccc(N2CCN(C[C@@H]3C(=O)O[C@@H]4C5=C(C)C(=O)C=C[C@]5(C)CC[C@@H]34)CC2)cc1", "values": [{"measurement": "GI50", "setting": "Melanoma cell line", "result": 3000, "unit": "nM"}, {"measurement": "GI50", "setting": "[2]", "result": 3000, "unit": "nM"}]}, {"smiles": "C[C@@H]1C(=O)O[C@H]2C3=CC(=O)C[C@@H](O)[C@]3(C)CC[C@@H]12", "values": [{"measurement": "pIC50", "setting": "P388", "result": "5.16 to 5.51"}, {"measurement": "pIC50", "setting": "HONE1 cell line", "result": "5.16 to 5.51"}, {"measurement": "pIC50", "setting": "HT-29", "result": "5.16 to 5.51"}]}, {"smiles": "CCCN(CCC)C[C@@H]1C(=O)O[C@@H]2C3=C(C)C(=O)C=C[C@]3(C)CC[C@@H]12", "values": [{"measurement": "GI50", "setting": "Melanoma cell line", "result": 4000, "unit": "nM"}, {"measurement": "GI50", "setting": "[2]", "result": 2000, "unit": "nM"}]}, {"smiles": "CCCOc1cc(C)c2c(c1C)C[C@H]([C@@H](C)C(=O)Nc1nccs1)CC2", "values": [{"measurement": "pIC50", "setting": "[3]", "result": 6.10}, {"measurement": "pIC50", "setting": "[4]", "result": 6.00}]}, {"smiles": "CCCOc1cc(C)c2c(c1C)C[C@H]([C@@H](C)C(=O)NCc1cccs1)CC2", "values": [{"measurement": "pIC50", "setting": "[3]", "result": 5.10}, {"measurement": "pIC50", "setting": "[4]", "result": 5.52}]}, {"smiles": "CC1=C2[C@H]3OC(=O)[C@@H](CN4CCN(Cc5ccc6c(c5)OCO6)CC4)[C@@H]3CC[C@@]2(C)C=CC1=O", "values": [{"measurement": "GI50", "setting": "Melanoma cell line", "result": 2000, "unit": "nM"}, {"measurement": "GI50", "setting": "[2]", "result": 4000, "unit": "nM"}]}, {"smiles": "CC1=C2[C@H]3OC(=O)[C@@H](CN4CCOCC4)[C@@H]3CC[C@@]2(C)C=CC1=O", "values": [{"measurement": "GI50", "setting": "Melanoma cell line", "result": 3000, "unit": "nM"}, {"measurement": "GI50", "setting": "[2]", "result": 4000, "unit": "nM"}]}, {"smiles": "CCCOc1cc(C)c2c(c1C)C[C@H]([C@@H](C)C(=O)Nc1ncc(C)s1)CC2", "values": [{"measurement": "pIC50", "setting": "[3]", "result": 6.00}, {"measurement": "pIC50", "setting": "[4]", "result": 6.10}]}, {"smiles": "C[C@@H]1C(=O)O[C@H]2[C@H]1CC[C@@]1(C)CCC(=O)[C@](C)(OO)[C@@H]21", "values": [{"measurement": "EC50", "setting": "[5]", "result": 0.4, "unit": "µg/mL"}, {"measurement": "EC50", "setting": "[6]", "result": 64.2, "unit": "µg/mL"}]}, {"smiles": "CCCOc1cc(C)c2c(c1C)C[C@H]([C@@H](C)C(=O)Nc1ccccn1)CC2", "values": [{"measurement": "pIC50", "setting": "[3]", "result": 6.05}, {"measurement": "pIC50", "setting": "[4]", "result": 5.22}]}, {"smiles": "CC1=C2C(=O)[C@H]([C@@H](C)C(=O)OCc3ccccc3)CC[C@@]2(C)C=CC1Cc1ccccc1", "note": "(stereo partly drawn)", "values": [{"measurement": "pIC50", "setting": "A549", "result": 6.52}, {"measurement": "pIC50", "setting": "THP-1", "result": 6.29}, {"measurement": "pIC50", "setting": "[7]", "result": 6.64}, {"measurement": "pIC50", "setting": "HCT-116", "result": 6.22}]}]}
